Structures are written as SMILES.

The target in assay [1] is T1, rat P2X3 receptor (Rattus norvegicus, UniProt P49654).
T1 construct: expressed in transfected cells; host or cells: CHO-K1
T1 sequence (P49654 1-397): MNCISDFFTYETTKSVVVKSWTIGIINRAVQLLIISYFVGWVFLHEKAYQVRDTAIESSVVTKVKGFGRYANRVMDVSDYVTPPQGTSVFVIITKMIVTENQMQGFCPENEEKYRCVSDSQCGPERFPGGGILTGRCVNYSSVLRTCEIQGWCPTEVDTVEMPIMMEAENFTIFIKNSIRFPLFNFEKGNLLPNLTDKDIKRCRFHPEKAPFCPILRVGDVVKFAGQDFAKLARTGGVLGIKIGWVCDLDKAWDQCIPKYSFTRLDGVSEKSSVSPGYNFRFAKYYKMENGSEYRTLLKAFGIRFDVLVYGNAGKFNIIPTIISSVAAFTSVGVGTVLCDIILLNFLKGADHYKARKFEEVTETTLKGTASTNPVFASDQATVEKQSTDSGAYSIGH
The experiment in a line: P2X3 FLIPR (Fluorometric Imaging Plate Reader) assay. The note with it: CHO-K1 cells transfected with rat P2X3, agonist α,β-meATP 1 μM, FLIPR calcium fluorescence; for Ki: read-out: pKi P2X3 (converted). It is filed as cell-based. The procedure: (§1) CHO-K1 cells were transfected with cloned rat P2X3 or human P2X2/3 receptor subunits and passaged in flasks. 18-24 hours before the FLIPR experiment, cells were released from their flasks, centrifuged, and resuspended in nutrient medium at 2.5×10^5 cells/ml. The cells were aliquoted into black-walled 96-well plates at a density of 50,000 cells/well and incubated overnight in 5% CO2 at 37° C. On the day of the experiment, cells were washed in FLIPR buffer (calcium- and magnesium-free Hank's balanced salt solution, 10 mM HEPES, 2 mM CaCl2, 2.5 mM probenecid; FB). Each well received 100 μl FB and 100 μl of the fluorescent dye Fluo-3 AM [2 μM final conc.]. After a 1 hour dye loading incubation at 37° C., the cells were washed 4 times with FB, and a final 75 μl/well FB was left in each well.
(§2) Test compounds (dissolved in DMSO at 10 mM and serially diluted with FB) or vehicle were added to each well (25 μl of a 4× solution) and allowed to equilibrate for 20 minutes at room temperature. The plates were then placed in the FLIPR and a baseline fluorescence measurement (excitation at 488 nm and emission at 510-570 nm) was obtained for 10 seconds before a 100 μl/well agonist or vehicle addition. The agonist was a 2× solution of α,β-meATP producing a final concentration of 1 μM (P2X3) or 5 μM (P2X2/3). Fluorescence was measured for an additional 2 minutes at 1 second intervals after agonist addition. A final addition of ionomycin (5 μM, final concentration) was made to each well of the FLIPR test plate to establish cell viability and maximum fluorescence of dye-bound cytosolic calcium. Peak fluorescence in response to the addition of α,β-meATP (in the absence and presence of test compounds) was measured and inhibition curves generated using nonlinear regression. PPADS, a standard P2X antagonist, was used as a positive control.

Assay [2] addresses T2, human P2X2/3 receptor (Homo sapiens, UniProt P56373+Q9UBL9).
T2 construct: expressed in transfected cells; host or cells: CHO-K1
T2 sequence (Q9UBL9 1-471): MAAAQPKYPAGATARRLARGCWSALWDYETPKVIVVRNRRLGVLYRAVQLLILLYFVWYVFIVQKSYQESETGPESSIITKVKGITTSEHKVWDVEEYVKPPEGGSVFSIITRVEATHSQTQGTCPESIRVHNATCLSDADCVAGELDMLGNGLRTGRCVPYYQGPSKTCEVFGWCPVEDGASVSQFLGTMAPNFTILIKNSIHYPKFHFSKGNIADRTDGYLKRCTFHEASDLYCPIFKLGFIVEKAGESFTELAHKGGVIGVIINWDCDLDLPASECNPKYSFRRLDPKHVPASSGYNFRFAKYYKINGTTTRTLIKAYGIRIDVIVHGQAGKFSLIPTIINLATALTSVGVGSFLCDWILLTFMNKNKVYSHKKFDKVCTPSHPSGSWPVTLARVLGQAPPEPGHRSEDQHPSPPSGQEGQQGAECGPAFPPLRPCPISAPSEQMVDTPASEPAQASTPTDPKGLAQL
T2 sequence (P56373 1-397): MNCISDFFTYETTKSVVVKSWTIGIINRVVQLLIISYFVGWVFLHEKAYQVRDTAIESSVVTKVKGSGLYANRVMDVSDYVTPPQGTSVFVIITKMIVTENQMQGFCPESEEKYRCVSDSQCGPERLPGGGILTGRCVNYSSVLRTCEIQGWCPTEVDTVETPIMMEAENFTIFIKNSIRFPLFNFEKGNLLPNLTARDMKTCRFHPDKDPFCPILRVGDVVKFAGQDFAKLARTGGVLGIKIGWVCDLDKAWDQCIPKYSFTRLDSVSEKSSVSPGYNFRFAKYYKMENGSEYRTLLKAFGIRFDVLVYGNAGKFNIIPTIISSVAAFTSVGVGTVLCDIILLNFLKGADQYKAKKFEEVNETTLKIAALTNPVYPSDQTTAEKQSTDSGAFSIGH
Kind of assay: P2X2/3 FLIPR (Fluorometric Imaging Plate Reader) assay. It is filed as cell-based. The note with it: CHO-K1 cells transfected with human P2X2/3; agonist α,β-meATP 5 μM; FLIPR calcium fluorescence; read-out: pKi P2X2/3 (converted). The procedure:
as §1, §2

Turning to `Cc1ccc(-c2cc(C(=O)NCc3cnc(C)cn3)cc(N3C(=O)OCC3(C)C)c2)nc1` [Compound 21, 3-(4,4-Dimethyl-2-oxo-oxazolidin-3-yl)-N-(5-methyl-pyrazin-2-ylmethyl)-5-(5-methyl-pyridin-2-yl)-benzamide], the Ki in assay [1] was 3.55 nM.
With `COC[C@@H](C)NC(=O)c1cc(-c2ccc(C)cn2)cc(N2C(=O)OC[C@H]2C(C)C)c1` [Compound 7, 3-((R)-4-Isopropyl-2-oxo-oxazolidin-3-yl)-N-((R)-2-methoxy-1-methyl-ethyl)-5-(5-methyl-pyridin-2-yl)-benzamide], the values for the Ki in assay [1] and in assay [2] were 5.25 nM and 562 nM, respectively.
`Cc1ccc(-c2cc(C(=O)NC(C)c3cnccn3)cc(N3C(=O)OCC3(C)C)c2)nc1` (centres unmarked) [Compound 20, 3-(4,4-Dimethyl-2-oxo-oxazolidin-3-yl)-5-(5-methyl-pyridin-2-yl)-N-(1-pyrazin-2-yl-ethyl)-benzamide]: the Ki is 6.31 nM in assay [1] and 123 nM in assay [2].
On the same counts, the results for `Cc1ccc(-c2cc(C(=O)NC(C)c3cnccn3)cc(-n3c(=O)oc4ccccc43)c2)nc1` (centres unmarked) [Compound 2, 3-(5-Methyl-pyridin-2-yl)-5-(2-oxo-benzooxazol-3-yl)-N-(1-pyrazin-2-yl-ethyl)-benzamide] are 3.09 nM and 28.2 nM.
Take `Cc1ccc(-c2cc(C(=O)NCc3cnc(C)cn3)cc(N3C(=O)Cc4ccccc43)c2)nc1` [Compound 5, N-(5-Methyl-pyrazin-2-ylmethyl)-3-(5-methyl-pyridin-2-yl)-5-(2-oxo-2,3-dihydro-indol-1-yl)-benzamide]: the Ki was 8.91 nM in assay [1] and 89.1 nM in assay [2].
With `Cc1ccc(-c2cc(C(=O)N[C@@H](C)CO)cc(N3C(=O)OC[C@@H]3C(C)C)c2)cc1` [Compound 43, 5-((S)-4-Isopropyl-2-oxo-oxazolidin-3-yl)-4′-methyl-biphenyl-3-carboxylic acid ((S)-2-hydroxy-1-methyl-ethyl)-amide], the Ki in assay [1] was 2570 nM.
For `Cc1ccc(-c2cc(C(=O)NCc3cnc(C)cn3)cc(-n3c(=O)oc4ccccc43)c2)nc1` [Compound 1, N-(5-Methyl-pyrazin-2-ylmethyl)-3-(5-methyl-pyridin-2-yl)-5-(2-oxo-benzooxazol-3-yl)-benzamide], the Ki in assay [1] is 7.94 nM; in assay [2], 28.8 nM.
On the same counts, the results for `Cc1ccc(-c2cc(C(=O)NCc3cnc(C)cn3)cc(N3C(=O)OC[C@H]3C(C)C)c2)cc1` [Compound 40, 5-((R)-4-Isopropyl-2-oxo-oxazolidin-3-yl)-4′-methyl-biphenyl-3-carboxylic acid (5-methyl-pyrazin-2-ylmethyl)-amide] are 12.3 nM and 38 nM.
For the compound `Cc1ccc(-c2cc(C(=O)NC(C)c3cnccn3)cc(-n3c(=O)oc4ccccc43)c2)cc1` (centres unmarked) [Compound 50, 4′-Methyl-5-(2-oxo-benzooxazol-3-yl)-biphenyl-3-carboxylic acid (1-pyrazin-2-yl-ethyl)-amide], the Ki was 12.3 nM in assay [1] and 26.3 nM in assay [2].
`CCC[C@@H]1COC(=O)N1c1cc(C(=O)NCc2cnc(C)cn2)cc(-c2ccc(C)cn2)c1` [Compound 24, N-(5-Methyl-pyrazin-2-ylmethyl)-3-(5-methyl-pyridin-2-yl)-5-((R)-2-oxo-4-propyl-oxazolidin-3-yl)-benzamide]: the Ki in assay [1] is 166 nM.
In the case of `Cc1ccc(-c2cc(C(=O)NC(C)c3cnccn3)cc(N3C(=O)Cc4ccccc43)c2)nc1` (centres unmarked) [Compound 6, 3-(5-Methyl-pyridin-2-yl)-5-(2-oxo-2,3-dihydro-indol-1-yl)-N-(1-pyrazin-2-yl-ethyl)-benzamide], the Ki in assay [1] is 7.41 nM; in assay [2], 117 nM.
Regarding `COCC(C)NC(=O)c1cc(-c2ccc(C)cc2)cc(N2CCNC2=O)c1` (centres unmarked) [Compound 35, 4′-Methyl-5-(2-oxo-imidazolidin-1-yl)-biphenyl-3-carboxylic acid (2-methoxy-1-methyl-ethyl)-amide], the “pKi P2X3” value in assay [1] is 5.28.
`COCC(C)NC(=O)c1cc(-c2ccc(C)cc2)cc(N2CCNC2=O)c1` (centres unmarked) [Compound 52, 4′-Methyl-5-(2-oxo-imidazolidin-1-yl)-biphenyl-3-carboxylic acid (2-methoxy-1-methyl-ethyl)-amide]: in assay [1], the Ki is 5250 nM.
In the case of `Cc1ccc(-c2cc(C(=O)NC3CC3)cc(N3C(=O)OC[C@@H]3C(C)C)c2)cc1` [Compound 42, 5-((S)-4-Isopropyl-2-oxo-oxazolidin-3-yl)-4′-methyl-biphenyl-3-carboxylic acid cyclopropylamide], the Ki in assay [1] is 1480 nM.
The same measure, in the same setting: the same measure for `Cc1ccc(-c2cc(C(=O)NCc3cnc(C)cn3)cc(N3C(=O)OC[C@@H]3C(C)C)c2)cc1` [Compound 44, 5-((S)-4-Isopropyl-2-oxo-oxazolidin-3-yl)-4′-methyl-biphenyl-3-carboxylic acid (5-methyl-pyrazin-2-ylmethyl)-amide]: 1020 nM; for `Cc1ccc(-c2cc(C(=O)N[C@@H](C)CO)cc(N3C(=O)OCC3(C)C)c2)nc1` [Compound 25, 3-(4,4-Dimethyl-2-oxo-oxazolidin-3-yl)-N-((S)-2-hydroxy-1-methyl-ethyl)-5-(5-methyl-pyridin-2-yl)-benzamide]: 28.2 nM.
As to `Cc1ccc(-c2cc(C(=O)NC(C)c3cnccn3)cc(N3C(=O)OC[C@H]3C)c2)nc1` (stereo partly drawn) [Compound 15, 3-((R)-4-Methyl-2-oxo-oxazolidin-3-yl)-5-(5-methyl-pyridin-2-yl)-N-(1-pyrazin-2-yl-ethyl)-benzamide], in assay [1], the Ki is 1000 nM.
As for `CCC[C@@H]1COC(=O)N1c1cc(C(=O)NC(C)c2cnccn2)cc(-c2ccc(C)cn2)c1` (stereo partly drawn) [Compound 23, 3-(5-Methyl-pyridin-2-yl)-5-((R)-2-oxo-4-propyl-oxazolidin-3-yl)-N-(1-pyrazin-2-yl-ethyl)-benzamide], the Ki in assay [1] was 85.1 nM.
For `Cc1ccc(-c2cc(C(=O)N[C@@H](C)CO)cc(N3C(=O)CCC3C)c2)nc1` (stereo partly drawn) [Compound 26, N-((S)-2-Hydroxy-1-methyl-ethyl)-3-(2-methyl-5-oxo-pyrrolidin-1-yl)-5-(5-methyl-pyridin-2-yl)-benzamide], in assay [1], the Ki was 912 nM.
In the case of `CCC[C@@H]1COC(=O)N1c1cc(C(=O)N[C@@H](C)CO)cc(-c2ccc(C)cn2)c1` [Compound 22, N-((S)-2-Hydroxy-1-methyl-ethyl)-3-(5-methyl-pyridin-2-yl)-5-((R)-2-oxo-4-propyl-oxazolidin-3-yl)-benzamide], the Ki in assay [1] was 3800 nM.
On to `COCC(C)NC(=O)c1cc(-c2ccc(C)cc2)cc(N2C(=O)CCC2C)c1` (centres unmarked) [Compound 36, 4′-Methyl-5-(2-methyl-5-oxo-pyrrolidin-1-yl)-biphenyl-3-carboxylic acid (2-methoxy-1-methyl-ethyl)-amide], for which the Ki in assay [1] was 575 nM.

Values taken from patent US8093275B2, “Oxazolone and pyrrolidinone-substituted pryidine amides as P2X3 and P2X2/3 antagonists” (Roche Palo Alto LLC, priority 2009, dated 2012).
